Assay results reported in US10201564B2, “Methods of using inhaled nitric oxide gas for treatment of acute respiratory distress syndrome in children” (Mallinckrodt Hospital Products IP Limited, priority 2014, dated 2019).

Tested on: pediatric subjects with acute hypoxemic respiratory failure (AHRF)
Test: Pediatric AHRF study: adverse events, serious adverse events, deaths, discontinuations
Format: in vivo, human
Description: This was a prospective, multicenter, randomized, double-blind, placebo-controlled, parallel-group study of the safety and efficacy of inhaled nitric oxide in pediatric subjects with acute hypoxemic respiratory failure (AHRF). The subjects were randomized to receive either 5 ppm inhaled nitric oxide or placebo.
Nitric Oxide for inhalation at 5 ppm was administered continuously into the inspiratory limb of the ventilator circuit in mechanically ventilated subjects using a blinded version of the INOvent® delivery system.
Subjects received 100% treatment gas (nitric oxide 5 ppm or placebo [nitrogen gas]) until Day 28 or extubation, whichever occurred first.
This was a prospective, multicenter, randomized, double-blind, placebo-controlled, Phase III study to assess the effects of nitric oxide for inhalation in the treatment of acute hypoxic respiratory failure (AHRF) in pediatric subjects. The study population consisted of male and female pediatric subjects, aged 44 weeks postconceptional age to 16 years age, who were admitted to the pediatric intensive care unit (PICU) and who required intubation because of AHRF. The inclusion/exclusion criteria are described in the Patients section below.
Standardized ventilatory management and weaning procedures were used. Ventilatory management was used based on an “open lung approach” using positive end-expiratory pressure (PEEP) to increase lung volume and limiting tidal volumes to reduce plateau pressures. Subjects received nitric oxide for inhalation at 5 ppm or placebo (100% Grade 5 nitrogen gas) into the inspiratory limb of the ventilator circuit using a blinded version of the INOvent® delivery system. The subjects were treated until Day 28 or extubation, whichever occurred first. Subjects were assessed daily using a spontaneous breathing trial, according to the institution's standard of care. Arterial blood gases (ABG), ventilator settings, methemoglobin, oxygenation index, systolic blood pressure, diastolic blood pressure, Pediatric Risk of Mortality (PRISM) III score, and subject positioning (prone or supine) were performed/recorded at specified times during the study. Selected centers also performed plasma cytokine assays, bronchoalveolar lavage fluid (BALF) assays, and a 6-month follow-up assessment.

[1] = 5 ppm, relationship to study treatment Suspected

[N]=O [Nitric Oxide, nitric oxide]
Serious adverse event: Hypotension, subjects n (%) [1]: 0 (0.0)
Serious adverse event: Hypoxia, subjects n (%) [1]: 0 (0.0)
Serious adverse event: Intracranial pressure increased, subjects n (%) [1]: 0 (0.0)
Serious adverse event: Multi-organ failure, subjects n (%) [1]: 0 (0.0)
Serious adverse event: Pancreatitis, subjects n (%) [1]: 0 (0.0)
Serious adverse event: Pneumonia, aspergillus, subjects n (%) [1]: 0 (0.0)
Serious adverse event: Pulmonary hemorrhage, subjects n (%) [1]: 0 (0.0)
Serious adverse event: Renal failure, acute, subjects n (%) [1]: 0 (0.0)
Serious adverse event: Renal failure, subjects n (%) [1]: 0 (0.0)
Serious adverse event: Renal impairment, subjects n (%) [1]: 0 (0.0)
Serious adverse event: Respiratory failure, subjects n (%) [1]: 0 (0.0)
Serious adverse event: Sepsis, subjects n (%) [1]: 0 (0.0)
Serious adverse event: Subdural hematoma, subjects n (%) [1]: 0 (0.0)
Serious adverse event: Unevaluable event, subjects n (%) [1]: 0 (0.0)
Abdominal distension (5 ppm, subjects with AE): 0 (0.0) n (%)
Acidosis (5 ppm, subjects with AE): 1 (3.8%) n (%)
Agitation (5 ppm, subjects with AE): 2 (7.7%) n (%)
Anemia (5 ppm, subjects with AE): 1 (3.8%) n (%)
Apnea (5 ppm, subjects with AE): 1 (3.8%) n (%)
Arrhythmia (5 ppm, subjects with AE): 1 (3.8%) n (%)
Ascites (5 ppm, subjects with AE): 1 (3.8%) n (%)
Bacteremia (5 ppm, subjects with AE): 2 (7.7%) n (%)
Bacteria, blood (5 ppm, subjects with AE): 1 (3.8%) n (%)
Bacteria, sputum (5 ppm, subjects with AE): 0 (0.0) n (%)
Bladder distension (5 ppm, subjects with AE): 0 (0.0) n (%)
Brain edema (5 ppm, subjects with AE): 0 (0.0) n (%)
Bronchoalveolar lavage (5 ppm, subjects with AE): 1 (3.8%) n (%)
C-reactive protein increased (5 ppm, subjects with AE): 0 (0.0) n (%)
Cardiac arrest (5 ppm, subjects with AE): 0 (0.0) n (%)
Cerebral artery occlusion (5 ppm, subjects with AE): 0 (0.0) n (%)
Chest tube insertion (5 ppm, subjects with AE): 1 (3.8%) n (%)
Deep vein thrombosis (5 ppm, subjects with AE): 2 (7.7%) n (%)
Device failure (5 ppm, subjects with AE): 0 (0.0) n (%)
Diabetic ketoacidosis (5 ppm, subjects with AE): 0 (0.0) n (%)
Diarrhea (5 ppm, subjects with AE): 0 (0.0) n (%)
Disseminated intravascular coagulation (5 ppm, subjects with AE): 0 (0.0) n (%)
Empyema (5 ppm, subjects with AE): 0 (0.0) n (%)
Feeding disorder (5 ppm, subjects with AE): 0 (0.0) n (%)
Fungemia (5 ppm, subjects with AE): 1 (3.8%) n (%)
Fungus culture positive (5 ppm, subjects with AE): 0 (0.0) n (%)
Fungus urine test positive (5 ppm, subjects with AE): 0 (0.0) n (%)
Gangrene (5 ppm, subjects with AE): 1 (3.8%) n (%)
Gastrointestinal hemorrhage (5 ppm, subjects with AE): 0 (0.0) n (%)
Generalized edema (5 ppm, subjects with AE): 0 (0.0) n (%)
Hematuria (5 ppm, subjects with AE): 0 (0.0) n (%)
Hemoglobinemia (5 ppm, subjects with AE): 1 (3.8%) n (%)
Hemolytic anemia (5 ppm, subjects with AE): 0 (0.0) n (%)
Hemopneumothorax (5 ppm, subjects with AE): 0 (0.0) n (%)
Hemorrhage (5 ppm, subjects with AE): 0 (0.0) n (%)
Hemothorax (5 ppm, subjects with AE): 0 (0.0) n (%)
Hepatic failure (5 ppm, subjects with AE): 0 (0.0) n (%)
Hepatosplenomegaly (5 ppm, subjects with AE): 1 (3.8%) n (%)
Hyperammonemia (5 ppm, subjects with AE): 0 (0.0) n (%)
Hypercalcemia (5 ppm, subjects with AE): 1 (3.8%) n (%)
Hypercapnia (5 ppm, subjects with AE): 0 (0.0) n (%)
Hyperchloremia (5 ppm, subjects with AE): 1 (3.8%) n (%)
Hyperglycemia (5 ppm, subjects with AE): 1 (3.8%) n (%)
Hyperkalemia (5 ppm, subjects with AE): 1 (3.8%) n (%)
Hyperlipidemia (5 ppm, subjects with AE): 0 (0.0) n (%)
Hypernatremia (5 ppm, subjects with AE): 2 (7.7%) n (%)
Hypertension (5 ppm, subjects with AE): 0 (0.0) n (%)
Hypocalcemia (5 ppm, subjects with AE): 1 (3.8%) n (%)
Hypochloremia (5 ppm, subjects with AE): 0 (0.0) n (%)
Hypothermia (5 ppm, subjects with AE): 0 (0.0) n (%)
Hypoxia (5 ppm, subjects with AE): 0 (0.0) n (%)
Intracranial pressure increased (5 ppm, subjects with AE): 0 (0.0) n (%)
Labile blood pressure (5 ppm, subjects with AE): 0 (0.0) n (%)
Leukocytosis (5 ppm, subjects with AE): 1 (3.8%) n (%)
Lung infection, pseudomonal (5 ppm, subjects with AE): 0 (0.0) n (%)
Medical device removal (5 ppm, subjects with AE): 0 (0.0) n (%)
Metabolic acidosis (5 ppm, subjects with AE): 0 (0.0) n (%)
Metabolic alkalosis (5 ppm, subjects with AE): 1 (3.8%) n (%)
Multi-organ failure (5 ppm, subjects with AE): 0 (0.0) n (%)
Ocular icterus (5 ppm, subjects with AE): 0 (0.0) n (%)
Oliguria (5 ppm, subjects with AE): 0 (0.0) n (%)
Oxygen saturation decreased (5 ppm, subjects with AE): 2 (7.7%) n (%)
Pancreatitis (5 ppm, subjects with AE): 0 (0.0) n (%)
Pleural effusion (5 ppm, subjects with AE): 0 (0.0) n (%)
Pneumomediastinum (5 ppm, subjects with AE): 0 (0.0) n (%)
Pneumonia (5 ppm, subjects with AE): 1 (3.8%) n (%)
Pneumonia, aspergillus (5 ppm, subjects with AE): 0 (0.0) n (%)
Pneumonia, staphylococcal (5 ppm, subjects with AE): 1 (3.8%) n (%)
Pruritus (5 ppm, subjects with AE): 0 (0.0) n (%)
Pseudomonal sepsis (5 ppm, subjects with AE): 1 (3.8%) n (%)
Pulmonary hemorrhage (5 ppm, subjects with AE): 0 (0.0) n (%)
Pulmonary hypertension (5 ppm, subjects with AE): 0 (0.0) n (%)
Pyrexia (5 ppm, subjects with AE): 0 (0.0) n (%)
Renal failure (5 ppm, subjects with AE): 1 (3.8%) n (%)
Renal failure, acute (5 ppm, subjects with AE): 0 (0.0) n (%)
Renal impairment (5 ppm, subjects with AE): 0 (0.0) n (%)
Respiratory acidosis (5 ppm, subjects with AE): 0 (0.0) n (%)
Sepsis (5 ppm, subjects with AE): 0 (0.0) n (%)
Skin injury (5 ppm, subjects with AE): 0 (0.0) n (%)
Subdural hematoma (5 ppm, subjects with AE): 0 (0.0) n (%)
Thrombocythemia (5 ppm, subjects with AE): 1 (3.8%) n (%)
Thrombocytopenia (5 ppm, subjects with AE): 0 (0.0) n (%)
Tracheitis (5 ppm, subjects with AE): 2 (7.7%) n (%)
Unevaluable event (5 ppm, subjects with AE): 2 (7.7%) n (%)
Urinary tract infection (5 ppm, subjects with AE): 1 (3.8%) n (%)
Urinary tract infection, fungal (5 ppm, subjects with AE): 1 (3.8%) n (%)
Urine output decreased (5 ppm, subjects with AE): 1 (3.8%) n (%)
White blood cell count increased (5 ppm, subjects with AE): 0 (0.0) n (%)
AE in which death was the outcome, subject 2001A (died after the treatment period): No AE listed in which death was the outcome
AE in which death was the outcome, subject 2007 (donor two): No AE listed in which death was the outcome
relationship of deaths, serious AEs, severe AEs and AEs resulting in discontinuation to study treatment (in words): No death, serious AE, severe AE, or AE resulting in treatment discontinuation was suspected to be related to study treatment
SAE (identification of subjects with serious adverse events) (subject 3003 (person one), nitric oxide group): Bradycardia, hypotension
Action/Reported Outcome of SAE (subject 3003 (person one), nitric oxide group, DC = discontinued treatment): DC/death
